Experimental data from patent publication US20240208986A1, “PHENYL AZEPINES AS RIPK1 INHIBITORS AND METHODS OF USE THEREOF” (Merck Sharp & Dohme LLC, priority 2021, published 2024).

Biological target: RIPK1 (recombinant GST-RIPK1 kinase domain, residues 1-327) (Homo sapiens (Human), UniProt Q13546)
Assay: RIPK1-ADP-Glo Enzymatic Assay
Type: biochemical
Conditions: 25 nM GST-RIPK1, 300 μM ATP, 3 μM dephosphorylated-MBP; 30 minutes pre-incubation, 150 minutes reaction; ten-point titration
Method: The enzymatic activity of RIPK1 is measured using an assay derived from ADP-Glo kit (™Promega), which provides a luminescent-based ADP detection system. Specifically, the ADP generated by RIPK1 kinase is proportionally detected as luminescent signals in a homogenous fashion. In this context, the assessment of the inhibitory effect of small molecules (EC50) is measured by the effectiveness of the compounds to inhibit the ATP to ADP conversion by RIPK1.
In this assay, the potency (EC50) of each compound was determined from a ten-point (1:3 serial dilution; top compound concentration of 100000 nM) titration curve using the following outlined procedure. To each well of a white ProxiPlus 384 well-plate, 30 nL of compound (1% DMSO in final assay volume of 3 μL) was dispensed, followed by the addition of 2 μL of 1× assay buffer (25 mM Hepes 7.3, 20 mM MgCl2, 50 mM NaCl, 1 mM DTT, 0.005% Tween20, and 0.02% BSA) containing 37.5 nM of GST-RIPK1 (recombinant GST-RIPK1 kinase domain (residues 1-327) enzyme produced from baculovirus-transfected Sf21 cells: MW=62 kDa). Plates were placed in an ambient temperature humidified chamber for a 30 minutes pre-incubation with compound. Subsequently, each reaction was initiated by the addition of 1 μL 1× assay buffer containing 900 μM ATP and 3 μM dephosphorylated-MBP substrate. The final reaction in each well of 3 μL consists of 25 nM of GST-RIPK1, 300 μM ATP, and 3 μM dephosphorylated-MBP. Kinase reactions were allowed to proceed for 150 minutes prior to adding ADP-Glo reagents per Promega's outlined kit protocol. Dose-response curves were generated by plotting percent effect (% product conversion; Y-axis) vs. Log10 compound concentrations (X-axis). EC50 values were calculated using a non-linear regression, four-parameters sigmoidal dose-response model.

RIPK1 (recombinant GST-RIPK1 kinase domain, residues 1-327), sequence (Q13546 1-327): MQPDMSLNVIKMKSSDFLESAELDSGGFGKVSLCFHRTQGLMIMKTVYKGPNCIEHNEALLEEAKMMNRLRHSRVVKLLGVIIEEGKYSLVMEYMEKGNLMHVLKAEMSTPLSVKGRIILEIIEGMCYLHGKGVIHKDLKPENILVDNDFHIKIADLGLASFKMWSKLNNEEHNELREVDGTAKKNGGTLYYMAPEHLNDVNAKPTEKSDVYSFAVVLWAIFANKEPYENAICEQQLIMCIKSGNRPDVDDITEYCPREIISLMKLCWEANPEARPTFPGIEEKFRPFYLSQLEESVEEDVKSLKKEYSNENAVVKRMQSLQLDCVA

SMILES | IC50
O=C(N1C[C@@H]2C[C@H]1c1ccccc1O2)C12CC(C(F)F)(C1)C2 [Compound 1-60, [3-(difluoromethyl)bicyclo [1.1.1]pentan-1-yl][(2S,5S)-2,3-dihydro-2,5-methano-1,4-benzoxazepin-4(5H)-yl]methanone] | 512 nM
CC(C)(C(=O)N1C[C@@H]2C[C@H]1c1cc(Cl)ccc1O2)C(F)F [Compound 2-1, 1-[(2S,5S)-7-chloro-2,3-dihydro-2,5-methano-1,4-benzoxazepin-4(5H)-yl]-3,3-difluoro-2,2-dimethylpropan-1-one] | 61 nM
CC(C)(C(=O)N1C[C@@H]2C[C@H]1c1cc(C#N)ccc1O2)C(F)F [Compound 2-2, (2S,5S)-4-(3,3-difluoro-2,2-dimethylpropanoyl)-2,3,4,5-tetrahydro-2,5-methano-1,4-benzoxazepine-7-carbonitrile] | 158 nM
Cc1ccc2c(c1)[C@@H]1C[C@@H](CN1C(=O)C(C)(C)C(F)F)O2 [Compound 2-3, 3,3-difluoro-2,2-dimethyl-1-[(2S,5S)-7-methyl-2,3-dihydro-2,5-methano-1,4-benzoxazepin-4(5H)-yl]propan-1-one] | 143 nM
CC(C)(C)C(=O)N1C[C@@H]2C[C@H]1c1cc(F)cc(F)c1O2 [Compound 2-4, 1-[(2S,5S)-7,9-difluoro-2,3-dihydro-2,5-methano-1,4-benzoxazepin-4(5H)-yl]-2,2-dimethylpropan-1-one] | 60 nM
CC(C)(C)C(=O)N1C[C@@H]2C[C@H]1c1cc(F)ccc1O2 [Compound 2-5, 1-[(2S,5S)-7-fluoro-2,3-dihydro-2,5-methano-1,4-benzoxazepin-4(5H)-yl]-2,2-dimethylpropan-1-one] | 34 nM
CC(C)(C)C(=O)N1C[C@@H]2C[C@H]1c1cccc(F)c1O2 [Compound 2-6, 1-[(2S,5S)-9-fluoro-2,3-dihydro-2,5-methano-1,4-benzoxazepin-4(5H)-yl]-2,2-dimethylpropan-1-one] | 43 nM
CC(C)(C(=O)N1C[C@@H]2C[C@H]1c1cc(F)ccc1O2)C(F)F [Compound 2-7, 3,3-difluoro-1-[(2S,5S)-7-fluoro-2,3-dihydro-2,5-methano-1,4-benzoxazepin-4(5H)-yl]-2,2-dimethylpropan-1-one] | 25 nM
CC(C)(C(=O)N1C[C@@H]2C[C@H]1c1cccc(F)c1O2)C(F)F [Compound 2-8, 3,3-difluoro-1-[(2S,5S)-9-fluoro-2,3-dihydro-2,5-methano-1,4-benzoxazepin-4(5H)-yl]-2,2-dimethylpropan-1-one] | 20 nM
CC1(C(=O)N2C[C@@H]3C[C@H]2c2cc(F)ccc2O3)CCC1 [Compound 2-9, [(2S,5S)-7-fluoro-2,3-dihydro-2,5-methano-1,4-benzoxazepin-4(5H)-yl](1-methylcyclobutyl)methanone] | 63 nM
CC1(C(=O)N2C[C@@H]3C[C@H]2c2cccc(F)c2O3)CCC1 [Compound 2-10, [(2S,5S)-9-fluoro-2,3-dihydro-2,5-methano-1,4-benzoxazepin-4(5H)-yl](1-methylcyclobutyl)methanone] | 30 nM
CC(C)(C(=O)N1C[C@@H]2C[C@H]1c1cc(F)cc(C#N)c1O2)C(F)F [Compound 2-11, (2S,5S)-4-(3,3-difluoro-2,2-dimethylpropanoyl)-7-fluoro-2,3,4,5-tetrahydro-2,5-methano-1,4-benzoxazepine-9-carbonitrile] | 26 nM
CC(F)(F)C(C)(C)C(=O)N1C[C@@H]2C[C@H]1c1cccc(F)c1O2 [Compound 2-12, 3,3-difluoro-1-[(2S,5S)-9-fluoro-2,3-dihydro-2,5-methano-1,4-benzoxazepin-4(5H)-yl]-2,2-dimethylbutan-1-one] | 20 nM
CC(F)(F)C(C)(C)C(=O)N1C[C@@H]2C[C@H]1c1cc(F)ccc1O2 [Compound 2-13, 3,3-difluoro-1-[(2S,5S)-7-fluoro-2,3-dihydro-2,5-methano-1,4-benzoxazepin-4(5H)-yl]-2,2-dimethylbutan-1-one] | 23 nM
O=C(N1C[C@@H]2C[C@H]1c1cc(F)ccc1O2)C12CCC(CC1)C2 [Compound 2-14, (bicyclo[2.2.1]heptan-1-yl)[(2S,5S)-7-fluoro-2,3-dihydro-2,5-methano-1,4-benzoxazepin-4(5H)-yl]methanone] | 15 nM
O=C(N1C[C@@H]2C[C@H]1c1cccc(F)c1O2)C12CCC(CC1)C2 [Compound 2-15, (bicyclo[2.2.1]heptan-1-yl)[(2S,5S)-9-fluoro-2,3-dihydro-2,5-methano-1,4-benzoxazepin-4(5H)-yl]methanone] | 24 nM
CC(F)(F)C(C)(C)C(=O)N1C[C@@H]2C[C@H]1c1ccc(Cl)cc1O2 [Compound 2-16, 1-((2S,5S)-8-chloro-2,3-dihydro-2,5-methanobenzo[f][1,4]oxaze-pin-4(5H)-yl)-3,3-difluoro-2,2-dimethylbutan-1-one] | 35 nM
CC(C)(C(=O)N1C[C@@H]2C[C@H]1c1cccc(C#N)c1O2)C(F)F [Compound 2-19, (2S,5S)-4-(3,3-difluoro-2,2-dimethylpropanoyl)-2,3,4,5-tetrahydro-2,5-methano-1,4-benzoxazepine-9-carbonitrile] | 18 nM
CC(C)(C(=O)N1C[C@@H]2C[C@H]1c1cccc(Cl)c1O2)C(F)F [Compound 2-20, 1-[(2S,5S)-9-chloro-2,3-dihydro-2,5-methano-1,4-benzoxazepin-4(5H)-yl]-3,3-difluoro-2,2-dimethylpropan-1-one] | 52 nM
CC(C)(C(=O)N1C[C@@H]2C[C@H]1c1ccc(Cl)cc1O2)C(F)F [Compound 2-21, 1-[(2S,5S)-8-chloro-2,3-dihydro-2,5-methano-1,4-benzoxazepin-4(5H)-yl]-3,3-difluoro-2,2-dimethylpropan-1-one] | 37 nM
CC(C)(C(=O)N1C[C@@H]2C[C@H]1c1ccc(C#N)cc1O2)C(F)F [Compound 2-22, (2S,5S)-4-(3,3-difluoro-2,2-dimethylpropanoyl)-2,3,4,5-tetrahydro-2,5-methano-1,4-benzoxazepine-8-carbonitrile] | 388 nM
CC(C)(CC#N)C(=O)N1C[C@@H]2C[C@H]1c1ccc(Cl)cc1O2 [Compound 2-23, 4-((2S,5S)-8-chloro-2,3-dihydro-2,5-methanobenzo[f][1,4]oxaze-pin-4(5H)-yl)-3,3-dimethyl-4-oxobutanenitrile] | 49 nM
CC(C)(C(=O)N1C[C@@H]2C[C@H]1c1cc(F)cc(Cl)c1O2)C(F)F [Compound 2-24, 1-[(2S,5S)-9-chloro-7-fluoro-2,3-dihydro-2,5-methano-1,4-benzoxazepin-4(5H)-yl]-3,3-difluoro-2,2-dimethylpropan-1-one] | 30 nM
N#Cc1cc(F)cc2c1O[C@H]1C[C@@H]2N(C(=O)C23CCC(F)(CC2)C3)C1 [Compound 2-25, (2S,5S)-7-fluoro-4-(4-fluorobicyclo[2.2.1]heptane-1-carbonyl)-2,3,4,5-tetrahydro-2,5-methano-1,4-benzoxazepine-9-carbonitrile] | 10 nM
CC(C)(C(=O)N1C[C@@H]2C[C@H]1c1cc(F)cc(F)c1O2)C(F)F [Compound 2-26, 1-[(2S,5S)-7,9-difluoro-2,3-dihydro-2,5-methano-1,4-benzoxazepin-4(5H)-yl]-3,3-difluoro-2,2-dimethylpropan-1-one] | 12 nM
CC(C)(CC#N)C(=O)N1C[C@@H]2C[C@H]1c1cc(F)cc(F)c1O2 [Compound 2-27, 4-[(2S,5S)-7,9-difluoro-2,3-dihydro-2,5-methano-1,4-benzoxazepin-4(5H)-yl]-3,3-dimethyl-4-oxobutanenitrile] | 16 nM
